How the values were obtained:
[1] = target: T1, Prostaglandin G/H synthase 1 (Homo sapiens, UniProt P23219); format: functional
[2] = target: T1, Prostaglandin G/H synthase 1; format: functional; remark: listed apart in the source
Histamine H2 receptor = Histamine H2 receptor (Homo sapiens, UniProt P25021); format: functional, cell-based
[3] = target: T2, Gastrin/cholecystokinin type B receptor (Homo sapiens, UniProt P32239)
T2 sequence (P32239 whole entry): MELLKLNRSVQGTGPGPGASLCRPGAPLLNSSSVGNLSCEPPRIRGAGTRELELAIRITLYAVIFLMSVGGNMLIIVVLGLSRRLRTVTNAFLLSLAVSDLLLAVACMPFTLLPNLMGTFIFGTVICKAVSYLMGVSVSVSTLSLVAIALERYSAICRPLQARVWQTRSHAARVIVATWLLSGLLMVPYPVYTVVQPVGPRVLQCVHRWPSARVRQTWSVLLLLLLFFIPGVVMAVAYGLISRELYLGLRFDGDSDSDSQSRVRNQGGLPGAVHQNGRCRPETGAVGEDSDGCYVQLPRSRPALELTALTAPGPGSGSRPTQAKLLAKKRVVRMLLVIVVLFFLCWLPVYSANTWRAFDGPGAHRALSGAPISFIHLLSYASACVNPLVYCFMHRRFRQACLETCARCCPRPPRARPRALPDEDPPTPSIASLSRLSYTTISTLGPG

Melanocortin receptor 3 = Melanocortin receptor 3 (Homo sapiens, UniProt P41968)
Androgen receptor = target: T3, Androgen receptor (Rattus norvegicus, UniProt P15207); format: functional
T3 sequence (P15207 whole entry): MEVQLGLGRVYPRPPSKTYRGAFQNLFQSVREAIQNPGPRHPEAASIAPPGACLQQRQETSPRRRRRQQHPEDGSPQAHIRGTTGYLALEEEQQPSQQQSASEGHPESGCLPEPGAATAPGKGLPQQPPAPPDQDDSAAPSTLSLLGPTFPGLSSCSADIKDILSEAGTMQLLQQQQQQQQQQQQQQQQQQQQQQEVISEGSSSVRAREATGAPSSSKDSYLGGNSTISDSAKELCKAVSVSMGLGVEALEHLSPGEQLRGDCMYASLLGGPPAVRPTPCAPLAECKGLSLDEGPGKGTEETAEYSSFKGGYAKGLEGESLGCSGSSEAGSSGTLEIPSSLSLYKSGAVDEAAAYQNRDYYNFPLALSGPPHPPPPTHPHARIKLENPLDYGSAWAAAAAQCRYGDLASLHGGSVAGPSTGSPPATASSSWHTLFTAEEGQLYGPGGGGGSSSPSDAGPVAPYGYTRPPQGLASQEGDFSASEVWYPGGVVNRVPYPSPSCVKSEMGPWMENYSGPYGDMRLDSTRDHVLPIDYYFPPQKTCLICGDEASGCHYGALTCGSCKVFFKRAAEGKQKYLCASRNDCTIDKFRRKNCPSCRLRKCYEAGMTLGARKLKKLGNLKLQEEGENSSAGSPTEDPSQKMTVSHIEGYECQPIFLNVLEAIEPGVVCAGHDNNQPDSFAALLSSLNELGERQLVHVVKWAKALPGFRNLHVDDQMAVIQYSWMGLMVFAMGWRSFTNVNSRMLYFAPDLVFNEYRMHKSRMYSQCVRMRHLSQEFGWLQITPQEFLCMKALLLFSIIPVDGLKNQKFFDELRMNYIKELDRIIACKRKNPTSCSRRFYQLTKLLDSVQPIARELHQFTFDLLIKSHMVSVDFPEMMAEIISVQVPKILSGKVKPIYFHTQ

[4] = target: 5-hydroxytryptamine receptor 2B (Homo sapiens, UniProt P41595); format: functional, cell-based
Estrogen receptor = target: T4, Estrogen receptor (Homo sapiens, UniProt P03372)
T4 sequence (P03372 whole entry): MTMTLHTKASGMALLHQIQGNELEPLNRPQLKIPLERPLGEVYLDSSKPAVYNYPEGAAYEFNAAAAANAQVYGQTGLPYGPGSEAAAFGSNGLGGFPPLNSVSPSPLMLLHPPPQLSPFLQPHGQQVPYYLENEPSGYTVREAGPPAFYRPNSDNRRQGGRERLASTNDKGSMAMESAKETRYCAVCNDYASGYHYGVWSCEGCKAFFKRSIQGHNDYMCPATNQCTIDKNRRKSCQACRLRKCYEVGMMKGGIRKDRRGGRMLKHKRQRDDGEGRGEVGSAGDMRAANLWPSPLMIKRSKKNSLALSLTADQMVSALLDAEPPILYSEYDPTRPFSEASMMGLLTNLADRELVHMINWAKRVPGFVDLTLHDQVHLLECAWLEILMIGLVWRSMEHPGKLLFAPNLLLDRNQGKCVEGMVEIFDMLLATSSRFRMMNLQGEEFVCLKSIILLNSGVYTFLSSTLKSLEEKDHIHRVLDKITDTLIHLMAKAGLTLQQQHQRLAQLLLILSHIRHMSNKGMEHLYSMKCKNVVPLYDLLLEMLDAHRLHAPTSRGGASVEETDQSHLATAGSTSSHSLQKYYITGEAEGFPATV

Histamine H3 receptor = Histamine H3 receptor (Homo sapiens, UniProt Q9Y5N1)
[5] = target: Beta-1 adrenergic receptor (Homo sapiens, UniProt P08588); format: functional
[6] = target: T5, 5-hydroxytryptamine receptor 1A (Homo sapiens, UniProt P08908); format: functional, cell-based
T5 sequence (P08908 whole entry): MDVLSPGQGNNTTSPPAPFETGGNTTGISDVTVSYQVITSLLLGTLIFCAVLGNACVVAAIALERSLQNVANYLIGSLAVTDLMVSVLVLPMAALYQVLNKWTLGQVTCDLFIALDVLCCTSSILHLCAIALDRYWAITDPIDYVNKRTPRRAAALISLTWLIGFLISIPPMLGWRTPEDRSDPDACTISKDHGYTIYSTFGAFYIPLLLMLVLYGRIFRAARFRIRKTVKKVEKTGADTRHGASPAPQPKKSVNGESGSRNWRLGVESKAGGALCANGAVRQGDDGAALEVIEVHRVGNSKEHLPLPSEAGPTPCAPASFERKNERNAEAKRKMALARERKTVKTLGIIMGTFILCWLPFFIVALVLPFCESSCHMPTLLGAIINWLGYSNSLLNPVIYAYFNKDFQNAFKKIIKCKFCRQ
Further: assay procedure not described here.

T1 sequence (P23219 whole entry): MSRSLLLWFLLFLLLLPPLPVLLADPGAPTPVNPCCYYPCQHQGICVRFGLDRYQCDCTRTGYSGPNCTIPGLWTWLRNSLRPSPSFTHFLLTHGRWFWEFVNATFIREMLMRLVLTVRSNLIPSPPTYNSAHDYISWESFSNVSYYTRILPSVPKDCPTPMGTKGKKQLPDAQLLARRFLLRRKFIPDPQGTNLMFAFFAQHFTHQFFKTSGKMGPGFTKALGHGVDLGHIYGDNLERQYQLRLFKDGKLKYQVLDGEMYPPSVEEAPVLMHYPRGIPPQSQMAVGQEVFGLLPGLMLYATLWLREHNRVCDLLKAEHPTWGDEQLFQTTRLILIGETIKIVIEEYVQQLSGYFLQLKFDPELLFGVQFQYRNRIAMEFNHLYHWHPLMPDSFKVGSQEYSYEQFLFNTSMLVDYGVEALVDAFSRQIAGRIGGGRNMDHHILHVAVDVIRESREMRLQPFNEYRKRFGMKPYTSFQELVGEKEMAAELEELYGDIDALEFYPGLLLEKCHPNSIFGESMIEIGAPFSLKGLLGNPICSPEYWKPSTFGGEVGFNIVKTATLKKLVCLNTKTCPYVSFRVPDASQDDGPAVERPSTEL
Sequence of Beta-1 adrenergic receptor (P08588 whole entry): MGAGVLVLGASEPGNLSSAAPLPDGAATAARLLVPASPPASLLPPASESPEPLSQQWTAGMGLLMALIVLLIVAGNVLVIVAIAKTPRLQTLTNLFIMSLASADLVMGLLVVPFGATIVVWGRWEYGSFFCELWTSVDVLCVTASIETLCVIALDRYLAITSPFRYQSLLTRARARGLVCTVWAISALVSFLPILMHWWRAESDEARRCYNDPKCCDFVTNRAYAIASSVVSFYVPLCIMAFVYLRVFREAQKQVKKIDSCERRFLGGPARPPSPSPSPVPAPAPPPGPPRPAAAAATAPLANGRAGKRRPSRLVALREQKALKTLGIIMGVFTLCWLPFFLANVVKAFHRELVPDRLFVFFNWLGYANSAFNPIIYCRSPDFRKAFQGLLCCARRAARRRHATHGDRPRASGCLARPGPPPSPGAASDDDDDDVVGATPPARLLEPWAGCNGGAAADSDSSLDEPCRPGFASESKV
Sequence of Histamine H3 receptor (Q9Y5N1 whole entry): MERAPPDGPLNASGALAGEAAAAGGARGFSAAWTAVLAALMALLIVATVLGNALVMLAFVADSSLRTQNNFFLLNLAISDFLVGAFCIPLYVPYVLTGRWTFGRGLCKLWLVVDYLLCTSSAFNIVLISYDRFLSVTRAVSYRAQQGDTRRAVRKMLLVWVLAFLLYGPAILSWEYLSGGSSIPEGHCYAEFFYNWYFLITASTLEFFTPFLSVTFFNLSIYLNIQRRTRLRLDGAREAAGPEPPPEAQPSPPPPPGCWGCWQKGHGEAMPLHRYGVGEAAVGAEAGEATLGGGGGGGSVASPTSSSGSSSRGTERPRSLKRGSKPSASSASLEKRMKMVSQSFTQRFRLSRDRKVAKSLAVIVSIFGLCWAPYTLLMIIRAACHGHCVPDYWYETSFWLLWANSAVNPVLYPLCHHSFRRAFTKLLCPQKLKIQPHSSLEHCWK
Sequence of Melanocortin receptor 3 (P41968 whole entry): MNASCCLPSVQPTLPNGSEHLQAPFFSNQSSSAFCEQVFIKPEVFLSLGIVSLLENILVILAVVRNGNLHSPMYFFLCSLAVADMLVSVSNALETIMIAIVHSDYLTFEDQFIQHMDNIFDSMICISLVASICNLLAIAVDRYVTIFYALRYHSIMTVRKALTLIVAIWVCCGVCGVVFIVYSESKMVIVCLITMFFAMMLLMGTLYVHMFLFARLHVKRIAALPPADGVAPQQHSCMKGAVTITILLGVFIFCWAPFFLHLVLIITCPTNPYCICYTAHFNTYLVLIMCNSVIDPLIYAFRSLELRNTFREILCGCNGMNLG
Sequence of Histamine H2 receptor (P25021 whole entry): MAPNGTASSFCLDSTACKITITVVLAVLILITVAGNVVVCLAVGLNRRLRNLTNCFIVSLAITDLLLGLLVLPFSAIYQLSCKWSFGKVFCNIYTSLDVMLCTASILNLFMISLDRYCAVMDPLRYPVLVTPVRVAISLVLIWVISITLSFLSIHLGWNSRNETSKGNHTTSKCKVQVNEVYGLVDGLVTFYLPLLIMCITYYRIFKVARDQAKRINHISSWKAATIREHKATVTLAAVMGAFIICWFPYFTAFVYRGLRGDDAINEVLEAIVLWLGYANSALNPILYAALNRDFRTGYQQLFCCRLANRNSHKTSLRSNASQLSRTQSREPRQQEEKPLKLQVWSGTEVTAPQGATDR
Sequence of 5-hydroxytryptamine receptor 2B (P41595 whole entry): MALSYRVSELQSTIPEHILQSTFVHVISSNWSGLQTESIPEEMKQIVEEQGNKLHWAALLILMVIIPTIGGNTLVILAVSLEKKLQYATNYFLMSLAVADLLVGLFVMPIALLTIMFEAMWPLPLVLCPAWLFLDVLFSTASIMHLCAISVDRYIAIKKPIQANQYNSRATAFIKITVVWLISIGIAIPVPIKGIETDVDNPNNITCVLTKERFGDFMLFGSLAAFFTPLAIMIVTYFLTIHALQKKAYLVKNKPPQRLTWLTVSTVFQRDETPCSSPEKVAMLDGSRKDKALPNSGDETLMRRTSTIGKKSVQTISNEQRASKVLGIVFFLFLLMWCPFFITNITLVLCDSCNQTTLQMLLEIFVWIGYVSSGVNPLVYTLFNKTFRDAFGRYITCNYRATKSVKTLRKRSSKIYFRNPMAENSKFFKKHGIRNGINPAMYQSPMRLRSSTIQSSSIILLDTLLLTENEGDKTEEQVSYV

AC50 (Histamine H2 receptor) [µM]	AC50 [3] [µM]	AC50 (Melanocortin receptor 3) [µM]	AC50 (Androgen receptor) [µM]	AC50 [4] [µM]	AC50 (Estrogen receptor) [µM]	AC50 (Histamine H3 receptor) [µM]	AC50 [5] [µM]	AC50 [6] [µM]	Molecule	AC50 [1] [µM]	AC50 [2] [µM]
									CN(C)c1ccc(C(=C2C=CC(=[N+](C)C)C=C2)c2ccc(N(C)C)cc2)cc1 [GENTIAN VIOLET]	20.8	11.8
> 30	> 30	> 30	> 10	> 30	> 30	> 30	> 30	> 30	HYDROXOCOBALAMIN		
